From PubChem BioAssay (NCI) come the findings set out here.

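Where inhibition never reached the appropriate level, the endpoint shown equals the highest concentration tested. Otherwise, values were interpolated linearly from a five-concentration, 48-hour dose response in 96-well plates. At the TGI there is no net growth.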

Test systems include 786-0 renal; DMS 273 small cell lung; OVCAR-4 ovarian; SK-MEL-28 melanoma; M14 melanoma; LXFL 529 NSCLC; DLD-1 colon; K-562 leukemia; SR leukemia; BT-549 breast; PC-3 prostate.
Common to all, as to experiment: NCI tumour cell line growth inhibition, 48 h

For `CCOC(=O)C(NC(=O)c1ccc(N=NN(C)C)cc1)C(C)C` (stereo unspecified), the TGI in the test with 786-0 renal, in the test with DMS 273 small cell lung, with OVCAR-4 ovarian, with SK-MEL-28 melanoma, in the test with M14 melanoma and in the test with LXFL 529 NSCLC was > 100 µM throughout. In addition, the TGI in the test with DLD-1 colon, with K-562 leukemia and with SR leukemia was > 100 µM each time.

As for `O=c1oc2ccccc2c2nc3ccccc3cc12`, the TGI in the test with 786-0 renal is 80.4 µM; in the test with OVCAR-4 ovarian, 47.7 µM; in the test with BT-549 breast, > 100 µM; in the test with SK-MEL-28 melanoma, > 100 µM; with PC-3 prostate it was > 100 µM; with M14 melanoma it was > 100 µM. Moreover, the TGI with K-562 leukemia and with SR leukemia was > 100 µM throughout.

On to `C[C@@H]1C(=O)CC2(O)[C@@]13C[C@@H](OC(=O)[C@@H]3O)[C@@H](C)[C@@]21COC1=O` (stereo partly specified), for which the TGI with 786-0 renal, in the test on OVCAR-4 ovarian, in the test with BT-549 breast, in the test with SK-MEL-28 melanoma, in the test with PC-3 prostate and in the test on M14 melanoma was > 100 µM throughout. Further, the TGI with K-562 leukemia and in the test with SR leukemia was > 100 µM in each case.

Turning to `CC/C=C\C/C=C\C/C=C\CCCCCCCC(=O)OC(COC(=O)CCCCCCCCCCCCCCCCC)COC1OC(CO)C(O)C(O)C1O` (stereo unspecified), the TGI in the test with 786-0 renal, in the test on OVCAR-4 ovarian, in the test on BT-549 breast, with SK-MEL-28 melanoma, in the test with PC-3 prostate and in the test with M14 melanoma was > 25 µM throughout. The TGI in the test on K-562 leukemia and with SR leukemia was > 25 µM each time.

`CC1(C)OC(CCO)CN1C(=O)OCc1ccccc1` (stereo unspecified): the TGI in the test with 786-0 renal, in the test on OVCAR-4 ovarian, with BT-549 breast, with SK-MEL-28 melanoma, in the test on PC-3 prostate and in the test with M14 melanoma was > 100 µM each time. Further, the TGI with K-562 leukemia and with SR leukemia was > 100 µM each time.

For the compound `CC[P+](C#Cc1ccccc1)(c1ccccc1)c1ccccc1`, the TGI in the test with 786-0 renal stood at 4.36 µM; with OVCAR-4 ovarian it was 12.3 µM; in the test with BT-549 breast, 3.43 µM; in the test on SK-MEL-28 melanoma, 4.68 µM; in the test on PC-3 prostate, 6.53 µM; in the test on M14 melanoma, 3.56 µM. Besides, the values for the TGI with K-562 leukemia and in the test on SR leukemia were 0.74 µM and 5.73 µM, respectively.

Turning to `CC(C)(C)OC(=O)c1ccc(NCc2cc(O)ccc2O)cc1`, the TGI in the test on 786-0 renal was 5.38 µM; in the test on OVCAR-4 ovarian, 5.59 µM; in the test on BT-549 breast, 6.9 µM; with SK-MEL-28 melanoma, 5.28 µM; in the test with PC-3 prostate it was 3.75 µM; in the test on M14 melanoma, 7.35 µM. Also, the TGI with K-562 leukemia was 38.1 µM; with SR leukemia it was > 34.5 µM.

Take `Cc1cn(C2CC(OC(c3ccccc3)(c3ccccc3)c3ccccc3)C(COC(c3ccccc3)(c3ccccc3)c3ccccc3)O2)c(=O)[nH]c1=O` (stereo unspecified): the TGI was > 100 µM in the test with 786-0 renal; > 100 µM in the test on OVCAR-4 ovarian; 98.4 µM in the test on BT-549 breast; > 100 µM in the test on SK-MEL-28 melanoma; > 100 µM with PC-3 prostate; > 100 µM in the test with M14 melanoma. Further, the TGI in the test on K-562 leukemia and in the test on SR leukemia was > 100 µM throughout.

In the case of `COP(=O)(CC(=O)C1OC(OCc2ccccc2)C(OCc2ccccc2)C(OCc2ccccc2)C1OCc1ccccc1)OC` (stereo unspecified), the TGI in the test on 786-0 renal is > 100 µM; in the test with OVCAR-4 ovarian, 8.89 µM; in the test on BT-549 breast, 71.2 µM; in the test with SK-MEL-28 melanoma it was > 100 µM; with PC-3 prostate, > 100 µM; with M14 melanoma, 70 µM. Further, the values for the TGI with K-562 leukemia and in the test with SR leukemia were > 100 µM and 21.4 µM, respectively.

Consider `Cc1ccc(-n2cc(-c3ccc(Cl)cc3)c3c2N=CN2NC(c4ccco4)=NC32)cc1` (stereo unspecified), for which the TGI in the test on 786-0 renal is 17.4 µM; in the test on OVCAR-4 ovarian it was 4.03 µM; in the test with BT-549 breast, 99.2 µM; in the test with SK-MEL-28 melanoma it was > 100 µM; in the test with PC-3 prostate, > 100 µM; in the test with M14 melanoma it was > 100 µM. For the same compound, the TGI in the test on K-562 leukemia is > 100 µM; in the test on SR leukemia it was 11.6 µM.

Turning to `CCN(C(=O)N[C@H](C(=O)N[C@@H](C)C(=O)OC)C(C)C)c1ccccc1`, the TGI in the test with 786-0 renal is 92.4 µM; in the test on OVCAR-4 ovarian it was > 100 µM; in the test with BT-549 breast it was > 100 µM; with SK-MEL-28 melanoma, > 100 µM; in the test on PC-3 prostate, > 100 µM; in the test on M14 melanoma, > 100 µM. Besides, the TGI in the test with K-562 leukemia and with SR leukemia was > 100 µM throughout.

`O=C(CN=C(CN(c1ccccc1)c1ccccc1)Oc1c(Cl)cc(Cl)cc1Cl)n1cnc2ccccc21`: the TGI in the test on 786-0 renal, with OVCAR-4 ovarian, in the test on BT-549 breast, with SK-MEL-28 melanoma, in the test with PC-3 prostate and with M14 melanoma was > 100 µM each time. Further, the TGI in the test on K-562 leukemia and in the test on SR leukemia was > 100 µM throughout.

With `C/C(=N\Nc1nc2ccccc2s1)c1cccnn1`, the TGI in the test with 786-0 renal is > 100 µM; with OVCAR-4 ovarian it was > 100 µM; with BT-549 breast, 60 µM; with SK-MEL-28 melanoma it was > 100 µM; in the test with PC-3 prostate, > 100 µM; in the test with M14 melanoma, 88.7 µM. Further, the TGI is > 100 µM in the test on K-562 leukemia and 52.5 µM in the test with SR leukemia.

In the case of `C=C1CC=CC(C)(C)C1C/C=C(\C)C(O)CBr` (stereo unspecified), the TGI in the test on 786-0 renal, with OVCAR-4 ovarian, in the test on BT-549 breast, with SK-MEL-28 melanoma, in the test on PC-3 prostate and in the test on M14 melanoma was > 100 µM in each case. The TGI with K-562 leukemia was > 100 µM; in the test on SR leukemia it was 88.5 µM.

As to `COn1cc(CO)c2ccccc21`, the TGI in the test on 786-0 renal, in the test with OVCAR-4 ovarian, in the test on BT-549 breast, with SK-MEL-28 melanoma, in the test on PC-3 prostate and with M14 melanoma was > 100 µM each time. Further, the TGI in the test with K-562 leukemia and in the test on SR leukemia was > 100 µM throughout.
